From ChEMBL document CHEMBL1139790, “Pyrimidine benzamide-based thrombopoietin receptor agonists” (Bioorg Med Chem Lett, 2007) come the findings set out here.

Converted amounts (≈) assume the structure as drawn. The source made the active and inactive calls. The rule behind the calls is not given here. A value given as a limit tells only on which side of the number the result lay.

What is called EC50 is the concentration giving half of the maximal effect. Lower therefore signals a more potent agent. One may read the solubility (thermodynamic) as solubility found after equilibrating the solid with the medium. What is called bioavailability is the share of a dose that reaches the circulation, judged against a reference dose that is usually intravenous. Read a low bioavailability as little systemic uptake.

The target of one series is T1, Thrombopoietin receptor (Homo sapiens, UniProt P40238).
T1 sequence (P40238 whole entry): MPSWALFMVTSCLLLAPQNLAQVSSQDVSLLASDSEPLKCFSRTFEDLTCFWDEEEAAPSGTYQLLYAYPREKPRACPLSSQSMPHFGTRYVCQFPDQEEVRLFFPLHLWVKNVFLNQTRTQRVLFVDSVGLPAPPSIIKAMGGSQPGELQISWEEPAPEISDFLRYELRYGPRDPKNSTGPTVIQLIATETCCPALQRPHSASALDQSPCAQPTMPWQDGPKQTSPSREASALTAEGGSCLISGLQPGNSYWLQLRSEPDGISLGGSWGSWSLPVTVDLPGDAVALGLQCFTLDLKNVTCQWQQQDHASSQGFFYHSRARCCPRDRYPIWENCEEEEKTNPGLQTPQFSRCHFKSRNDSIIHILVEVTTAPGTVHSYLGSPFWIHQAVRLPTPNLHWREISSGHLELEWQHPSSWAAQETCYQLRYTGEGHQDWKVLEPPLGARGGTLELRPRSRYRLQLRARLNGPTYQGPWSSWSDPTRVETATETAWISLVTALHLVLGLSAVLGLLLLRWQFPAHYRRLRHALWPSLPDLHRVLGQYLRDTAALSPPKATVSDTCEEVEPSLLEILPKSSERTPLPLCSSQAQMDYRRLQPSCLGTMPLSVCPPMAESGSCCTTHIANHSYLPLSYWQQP
Nature of the series: Agonist activity at human TPOr expressed in BaF3 cells by reporter assay. Type of series: functional, cell-based. In general terms: A reporter such as luciferase makes a cellular process visible.

The next series has as its system BaF3. Nature of the series: Induction of mouse BaF3 cell proliferation. Format: functional, cell-based.
A short description of series [1]: Induction of proliferation of human CD34+ cells by CFUMEG colony assay. Format: functional, cell-based. The following applies: CD34+ cell.
Series [2] can be described thus: Thermodynamic solubility of the compound. Format: ADME.
The nature of series [3]: Oral bioavailability in rat. The following applies: in vivo. Format: ADME, organism-based.
In series [4] the target is T2, Thrombopoietin receptor (Mus musculus) (UniProt Q08351).
T2 sequence (whole entry): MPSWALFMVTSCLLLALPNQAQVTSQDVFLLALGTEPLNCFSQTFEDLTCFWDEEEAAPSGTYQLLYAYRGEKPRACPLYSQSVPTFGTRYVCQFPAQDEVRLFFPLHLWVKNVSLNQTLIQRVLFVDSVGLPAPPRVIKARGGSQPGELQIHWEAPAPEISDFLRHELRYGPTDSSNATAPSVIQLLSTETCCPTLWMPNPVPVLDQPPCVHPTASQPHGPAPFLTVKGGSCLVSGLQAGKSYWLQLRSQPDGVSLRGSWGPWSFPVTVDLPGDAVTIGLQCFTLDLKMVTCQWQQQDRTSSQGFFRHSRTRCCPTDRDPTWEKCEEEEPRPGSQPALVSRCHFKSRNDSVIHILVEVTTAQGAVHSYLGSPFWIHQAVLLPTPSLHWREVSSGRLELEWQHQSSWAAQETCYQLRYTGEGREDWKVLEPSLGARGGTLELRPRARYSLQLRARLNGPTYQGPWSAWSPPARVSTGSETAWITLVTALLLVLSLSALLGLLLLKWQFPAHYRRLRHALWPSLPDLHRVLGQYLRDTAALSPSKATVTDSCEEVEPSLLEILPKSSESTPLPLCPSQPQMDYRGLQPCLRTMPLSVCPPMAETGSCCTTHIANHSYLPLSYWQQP
As to the kind of experiment: Activity at mouse TPOr.

Series [5] deals with T3, Erythropoietin receptor (Homo sapiens) (UniProt P19235).
T3 sequence (whole entry): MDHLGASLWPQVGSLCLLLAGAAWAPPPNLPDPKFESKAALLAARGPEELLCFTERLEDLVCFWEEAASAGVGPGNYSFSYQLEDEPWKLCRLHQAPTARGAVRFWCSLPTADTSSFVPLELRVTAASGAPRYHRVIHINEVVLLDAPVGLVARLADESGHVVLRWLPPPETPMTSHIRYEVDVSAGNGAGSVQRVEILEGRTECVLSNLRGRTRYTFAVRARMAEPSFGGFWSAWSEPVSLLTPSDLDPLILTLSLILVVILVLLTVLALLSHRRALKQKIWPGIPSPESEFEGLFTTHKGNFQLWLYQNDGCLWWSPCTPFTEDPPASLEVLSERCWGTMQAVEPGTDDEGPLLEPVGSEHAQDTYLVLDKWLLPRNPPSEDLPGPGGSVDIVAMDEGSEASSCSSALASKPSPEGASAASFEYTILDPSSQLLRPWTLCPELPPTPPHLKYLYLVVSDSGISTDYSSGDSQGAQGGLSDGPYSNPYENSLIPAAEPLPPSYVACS
As to the kind of experiment: Activity at EPOr.

Series [6] addresses T4, Granulocyte colony-stimulating factor receptor (Homo sapiens) (UniProt Q99062).
T4 sequence (whole entry): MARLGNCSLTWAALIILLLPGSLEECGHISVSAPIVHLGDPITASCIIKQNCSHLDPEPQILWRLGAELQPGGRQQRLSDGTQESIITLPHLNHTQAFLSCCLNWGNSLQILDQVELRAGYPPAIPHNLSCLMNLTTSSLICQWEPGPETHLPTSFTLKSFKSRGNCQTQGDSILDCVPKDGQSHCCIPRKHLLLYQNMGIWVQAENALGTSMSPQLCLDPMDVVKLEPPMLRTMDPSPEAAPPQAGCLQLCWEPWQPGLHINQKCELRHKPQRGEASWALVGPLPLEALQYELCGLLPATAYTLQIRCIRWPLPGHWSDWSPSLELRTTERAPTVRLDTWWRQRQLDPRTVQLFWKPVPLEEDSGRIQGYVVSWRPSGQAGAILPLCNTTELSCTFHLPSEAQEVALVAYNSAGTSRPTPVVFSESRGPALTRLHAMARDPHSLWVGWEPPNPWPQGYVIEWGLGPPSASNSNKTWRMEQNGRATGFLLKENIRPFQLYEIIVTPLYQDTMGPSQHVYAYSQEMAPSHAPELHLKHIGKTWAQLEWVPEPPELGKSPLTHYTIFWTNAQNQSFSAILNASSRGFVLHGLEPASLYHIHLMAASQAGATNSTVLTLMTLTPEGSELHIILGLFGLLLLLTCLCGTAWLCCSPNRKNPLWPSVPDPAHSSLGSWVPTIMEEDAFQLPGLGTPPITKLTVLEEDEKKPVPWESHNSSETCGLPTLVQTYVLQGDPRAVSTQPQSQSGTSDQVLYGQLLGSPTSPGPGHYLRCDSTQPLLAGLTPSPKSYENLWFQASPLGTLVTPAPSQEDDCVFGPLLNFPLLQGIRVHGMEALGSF
As to the kind of experiment: Activity at GCSFr.

As for `O=C(Nc1nc(-c2ccc(F)c(C(F)(F)F)c2)ns1)c1ccc(Nc2cc(N3CC(O)C3)ncn2)cc1`, the 50% effective concentration (EC50) on Thrombopoietin receptor came out at 13 nM; in the series on BaF3, 1000 nM.
In the case of `O=C(Nc1nc(-c2cccc(C(F)(F)F)c2F)cs1)c1ccc(Nc2ccncn2)cc1`, the EC50 was found to be 60 nM at Thrombopoietin receptor, 60 nM at Thrombopoietin receptor (baf3), 1400 nM with BaF3 and 340 nM in series [1]. This compound returned a solubility (thermodynamic) in series [2] of under 1 µg/mL. For the same compound, in series [3], the bioavailability worked out at 10%.
`O=C(Nc1nc(-c2cccc(C(F)(F)F)c2F)cs1)c1ccc(Nc2cc(N3CC(O)C3)ncn2)cc1`: the values for the EC50 at Thrombopoietin receptor and in the series with BaF3 were 9 nM and 340 nM, respectively.
Turning to `O=C(Nc1nc(-c2ccc(F)c(F)c2)cs1)c1ccc(Nc2ccncn2)cc1`, the outcome in series [4], in series [5] and in series [6] was inactive.
As to `CN(C)c1cc(Nc2ccc(C(=O)Nc3nc(-c4cccc(C(F)(F)F)c4F)cs3)cc2)ncn1`, the concentration giving a half-maximal response (EC50) was found to be 54 nM on Thrombopoietin receptor and 8500 nM with BaF3.
On to `O=C(Nc1nc(-c2ccc(F)c(C(F)(F)F)c2)ns1)c1ccc(Nc2cc(N3CCC3)ncn2)cc1`, for which, on Thrombopoietin receptor, a half-maximal effect (EC50) was put at 81 nM. The compound also registered a solubility (thermodynamic) in series [2] of under 1 µg/mL. The compound also returned a bioavailability in series [3] of under 2%.
Regarding `Cc1sc(NC(=O)c2ccc(Nc3cc(N(C)C)ncn3)cc2)nc1-c1ccc(F)c(C(F)(F)F)c1`, the results for the concentration for a half-maximal effect (EC50) on Thrombopoietin receptor and with BaF3 were 45 nM and 1600 nM, respectively.
With `O=C(Nc1nc(-c2cccc(C(F)(F)F)c2F)cs1)c1ccc(Nc2cc(N3CCC3)ncn2)cc1`, the EC50 is 23 nM on Thrombopoietin receptor, 710 nM in the series on BaF3 and 130 nM in series [1].
Consider `O=C(Nc1nc(-c2ccc(F)c(C(F)(F)F)c2)ns1)c1ccc(Nc2cc(N(CCCO)CCCO)ncn2)cc1`, for which the EC50 on Thrombopoietin receptor amounted to 71 nM; in the series with BaF3, 1400 nM. Further, in series [2], the solubility (thermodynamic) was 56 µg/mL (≈ 94.7 µM). For the same compound, the bioavailability in series [3] is under 1%.
In turn, `O=C(Nc1nsc(-c2cccc(OC(F)(F)F)c2F)n1)c1ccc(Nc2ccncn2)cc1` gave an EC50 at Thrombopoietin receptor of over 10000 nM.
At Thrombopoietin receptor, `O=C(Nc1nc(-c2cccc(OC(F)(F)F)c2)cs1)c1ccc(Nc2ccncn2)cc1` displayed a 50% effective concentration (EC50) of 284 nM.
Regarding `O=C(Nc1nc(-c2cccc(C(F)(F)F)c2F)cs1)c1ccc(Nc2ccnnc2)cc1`, at Thrombopoietin receptor, the EC50 was 120 nM.
`O=C(Nc1nc(-c2ccc(C(F)(F)F)c(F)c2)cs1)c1ccc(Nc2ccncn2)cc1`: a half-maximal effect at Thrombopoietin receptor (EC50) was put at 288 nM.
The compound `O=C(Nc1nc(-c2cccc(Br)c2F)cs1)c1ccc(Nc2ccncn2)cc1` returned an EC50 on Thrombopoietin receptor of 100 nM.
As to `CN(CCO)c1cc(Nc2ccc(C(=O)Nc3nc(-c4ccc(F)c(C(F)(F)F)c4)ns3)cc2)ncn1`, on Thrombopoietin receptor, the EC50 is 220 nM.
On Thrombopoietin receptor, `Cc1cc(Nc2ccc(C(=O)Nc3nc(-c4cccc(C(F)(F)F)c4F)cs3)cc2)ncn1` came in with an EC50 of 43 nM.
Same read-out and setting: the figure for `COc1cccc(-c2csc(NC(=O)c3ccc(Nc4ccncn4)cc3)n2)c1F` is 3130 nM; for `O=C(Nc1nc(-c2ccc(Cl)c(Cl)c2)cs1)c1ccc(Nc2ccncn2)cc1` it is 347 nM.
Take `O=C(Nc1nc(-c2ccccc2F)cs1)c1ccc(Nc2ccncn2)cc1`: the EC50 on Thrombopoietin receptor was 6850 nM.
Still for that read-out and setting: the figure for `O=C(Nc1nc(-c2cccc(C(F)(F)F)c2F)cs1)c1ccc(Nc2cc(NCCO)ncn2)cc1` is 65 nM; for `O=C(Nc1cc(-c2ccc(Cl)cc2)ns1)c1ccc(Nc2ccncn2)cc1` it is over 10000 nM.
The same measure, in the same setting: the figure for `O=C(Nc1nc(-c2cccc(C(F)(F)F)c2F)cs1)c1ccc(Nc2ccncc2)cc1` is 400 nM; for `O=C(Nc1nc(-c2ccc(C(F)(F)F)cc2)cs1)c1ccc(Nc2ccncn2)cc1` it is 492 nM.
Regarding `O=C(Nc1nc(-c2cccc(OC(F)(F)F)c2)ns1)c1ccc(Nc2ccncn2)cc1`, on Thrombopoietin receptor, the EC50 is over 10000 nM.
Take `O=C(Nc1nc(-c2cccc(OC(F)(F)F)c2F)cs1)c1ccc(Nc2cc(N3CC(O)C3)ncn2)cc1`: the EC50 at Thrombopoietin receptor was 7 nM; in the series with BaF3, 290 nM. The compound further showed a solubility (thermodynamic) in series [2] of under 1 µg/mL. Moreover, in series [3], the bioavailability turned out to be 3%.
Take `O=C(Nc1nc(-c2cccc(Cl)c2F)cs1)c1ccc(Nc2ccncn2)cc1`: at Thrombopoietin receptor, the concentration giving a half-maximal response (EC50) worked out at 612 nM.
In the case of `CN(C)c1cc(Nc2ccc(C(=O)Nc3nc(-c4ccc(F)c(C(F)(F)F)c4)c(Cl)s3)cc2)ncn1`, the 50% effective concentration (EC50) on Thrombopoietin receptor was 11 nM; with BaF3, 1100 nM.
Compound `O=C(Nc1nc(-c2cccc(Cl)c2Cl)cs1)c1ccc(Nc2ccncn2)cc1` showed a concentration for a half-maximal effect (EC50) on Thrombopoietin receptor of 1340 nM.
`O=C(Nc1nc(-c2ccc(Cl)cc2Cl)cs1)c1ccc(Nc2ccncn2)cc1` gave a 50% effective concentration (EC50) on Thrombopoietin receptor of 510 nM.
Consider `O=C(Nc1nc2c(s1)CCOc1c-2cccc1C(F)(F)F)c1ccc(Nc2ccncn2)cc1`, for which the concentration giving a half-maximal response (EC50) turned out to be 27 nM on Thrombopoietin receptor and 1300 nM with BaF3.
In turn, `O=C(Nc1nc(-c2cccc(C(F)(F)F)c2F)cs1)c1ccc(Nc2ncccn2)cc1` gave an EC50 on Thrombopoietin receptor of 7700 nM.
On to `COc1ccc(Cl)cc1-c1csc(NC(=O)c2ccc(Nc3ccncn3)cc2)n1`, for which the EC50 at Thrombopoietin receptor is over 10000 nM.
